Measurements from US8282968B2, “Bioactive water fraction from Gomphostemma niveum” (The Director General, Defence Research and Development …, priority 2005, dated 2012).

Tested on: P. falciparum
Assay: In vitro evaluation of anti-malarial activity (schizont maturation inhibition)
Assay type: cell-based
Settings: Plasmodium falciparum, 24 h
Source text: All the tests are run in duplicates with in 96 well flat bottomed tissue culture plate and double dilutions are made for each of the test compound with individual control wells only with the RPMI 1640 and human serum supplement.

IC90: 46 nM
Compound: CCN(CC)CCCC(C)Nc1ccnc2cc(Cl)ccc12 (stereo not shown) [Chloroquine]
